Laboratory results published in PMC9744894, “An optimized antimicrobial peptide analog acts as an antibiotic adjuvant to reverse methicillin-resistant Staphylococcus aureus” (NPJ Science of Food, 2022).
In brackets after ≈: the same amount, converted by molar mass. Read-outs that look alike come from different tables or passages of the source. No end group written: not given here.

Assays:
MRSA (ATCC 43300) [1] = experiment: Killing kinetics / growth inhibition; assay type: cell-based, Staphylococcus aureus; conditions: PIS-A-1 1/4 MIC or APC 1/8 MIC alone; OD600, 37 °C
Protocol: Likewise, the killing kinetics of antimicrobial agents against bacteria was tested. Briefly, 100 μL of antimicrobial agents were diluted two-fold in 96-well plates. Then, 100 μL of bacterial inoculum (1.5 × 10^6 CFU mL^−1) was appended and incubated at 37 °C. At a fixed time, the OD600 value of each well in the plate was measured by using a microplate reader (SpectraMax i3, Molecular Devices, USA).

[2] = tested on: methicillin-resistant Staphylococcus aureus ATCC 43300; experiment: microbe, parasite or virus in culture; conditions: ATCC43300 / MRSA, 18 h
[3] = tested on: methicillin-resistant Staphylococcus aureus ATCC 43300
[4] = tested on: Salmonella enterica CMCC 50335; conditions: MHB, 37 °C, 18 h
Protocol: (§1) The minimum inhibitory concentration (MIC) was adopted to measure the antimicrobial spectrum of AMPs[42]. Specifically, experiments were executed by broth microdilution method in a 96-well plate (Corning) with an initial inoculum of 1.5 × 10^6 Colony-Forming units (CFU) mL^−1 in MHB based on Clinical and Laboratory Standards Institute (CLSI) guidelines. Inoculums were bacteria in the Mid-Logarithmic phase. To prevent edge effects, 96-well plates were placed in a constant temperature incubator (TSQ-280, Jianuo, China) at 37 °C. After 18 h of incubation, a microplate reader (SpectraMax i3, Molecular Devices, USA) was applied to determine the OD600 value of the plates. […] Simultaneously, the number of inactivated bacteria treated with different drugs was quantitatively determined by flow cytometry (BD Accuri C6 Plus, USA) combined with […] propidium iodide (PI, Thermo Fisher Scientific, USA)[43].

[5] = tested on: Shigella flexneri CMCC 51571; conditions: MHB, 37 °C, 18 h
Protocol: as §1

[6] = tested on: Shigella flexneri CMCC 51572; conditions: MHB, 37 °C, 18 h
Protocol: as §1

[7] = tested on: Shigella sonnei CMCC 51592; conditions: MHB, 37 °C, 18 h
Protocol: as §1

[8] = tested on: Escherichia coli CMCC44102
[9] = tested on: Escherichia coli CMCC 44817
[10] = tested on: Escherichia coli ATCC 8739
[11] = tested on: Shigalla Dysenteria CMCC 51252; conditions: CMCC 51252, 18 h
[12] = tested on: Bacillus cereus CMCC 63301
[13] = tested on: Bacillus pumilus CMCC 63202
[14] = tested on: Staphylococcus aureus ATCC 29213
[15] = tested on: Staphylococcus aureus CMCC 26003
[16] = tested on: Staphylococcus aureus ATCC 12600
[17] = tested on: Staphylococcus aureus ATCC 6538
MRSA (ATCC 43300) [18] = conditions: chessboard with APC, MRSA ATCC 43300, 18 h; synergy defined as FIC index ≤ 0.5
mouse blood cells = assay type: cell-based, mice
Protocol: Blood cells taken from mice (ICR, male, 30–35 g) were treated with different concentrations of AMPs for 1 h. Meanwhile, Triton X-100 (0.2%) and phosphate-buffered saline (PBS, 0.01 moL^−1, pH 7.4) were used as positive and negative controls, respectively. After the reaction was completed, the OD576 value of each tube sample was determined and the hemolysis rate was calculated using the formula below[44],[45]:1 Hemolysisrate(%)=[(OD576sample−OD576blank)/(OD576TritonX−100−OD576blank)]×100%

[19] = tested on: pepsin, papain, and trypsin; assay type: in vitro ADME; conditions: pH 7.4
Protocol: AMPs were exposed to proteases (including pepsin, papain, and trypsin) dissolved in PBS (pH 7.4) at 37 °C for 12 h. Subsequently, proteases in AMPs were inactivated by high-temperature treatment (95 °C, 5 min) and the activity of treated AMPs against MRSA (ATCC 43300) was determined. AMPs dissolved in PBS without proteases were used as controls.

Caco-2 cells = experiment: Cytotoxicity, MTT assay; conditions: Caco-2, MTT; 64 μg/mL (concentration for PIS-1 and PIS-3 implied by context); mean ± SD, n = 3
Protocol: Caco-2 cells cultured with RPMI 1640 medium (containing 10% FBS and 1% penicillin-streptomycin) were incubated in a humidified CO2 (5%) atmosphere. Next, trypsin-treated cells (0.25%) were seeded in 96-well plates at a density of 5,000 per well and incubated for 24 h. Finally, cell viability of each well with fresh medium was tested by MTT assay.

With `CC1(C)S[C@@H]2[C@H](NC(=O)[C@H](N)c3ccccc3)C(=O)N2[C@H]1C(=O)O` [APC, Ampicillin] the “bactericidal activity in growth inhibition experiment, applied separately” value (MRSA (ATCC 43300) [1]) was “no bactericidal activity” and the MIC [2] was 16 µg/mL (≈ 45.8 µM).
Work on FIHHIFRGIVHVGRSIG [PIS-A-3] yielded an MIC ([3]; ATCC 43300, 18 h) of 32 µg/mL.
For FIHHIFRGIVHAG [PIS-A-5], the MIC ([3]; ATCC 43300, 18 h) was no less than 64 µg/mL.
With GIVHAG [PIS-A-6] the MIC ([3]; ATCC 43300, 18 h) was no less than 64 µg/mL.
With FIHHIFRGIVHVGRS [PIS-A-4] the MIC ([3]; ATCC 43300, 18 h) was 32 µg/mL.
For GIVHAGRSIGRFLTG [PIS-A-7], the MIC ([3]; ATCC 43300, 18 h) was no less than 64 µg/mL.
Work on `CN[C@H](CC(C)C)C(=O)N[C@H]1C(=O)N[C@@H](CC(N)=O)C(=O)N[C@H]2C(=O)N[C@H]3C(=O)N[C@H](C(=O)N[C@H](C(=O)O)c4cc(O)cc(O)c4-c4cc3ccc4O)[C@H](O)c3ccc(c(Cl)c3)Oc3cc2cc(c3O[C@@H]2O[C@H](CO)[C@@H](O)[C@H](O)[C@H]2O[C@H]2C[C@](C)(N)[C@H](O)[C@H](C)O2)Oc2ccc(cc2Cl)[C@H]1O` [VAN, vancomycin] yielded an MIC [2] of 0.25 µg/mL (≈ 0.173 µM).
Work on FIHHIFRGIVHLGRSIGRFLTG [PIS-A-2] yielded an MIC ([3]; ATCC 43300, 18 h) of 16 µg/mL.
“FFHHIFRGIVHVGKTIHRLVTG [PIS-1] [listing 1 of 2 here]” gave an MIC [4] of 16 µg/mL, an MIC [5] of 8 µg/mL and an MIC [6] of 8 µg/mL. The MIC [7] was 8 µg/mL, the MIC ([3]; MRSA ATCC 43300, broth microdilution in MHB, 1.5 × 10^6 CFU mL^−1, 37 °C, 18 h, OD600) was 16 µg/mL and the MIC ([8]; Escherichia coli CMCC44102, first listing in Supplementary table 1, MHB, 37 °C, 18 h) was 16 µg/mL. For the same compound, the MIC ([8]; Escherichia coli CMCC 44102, second listing in Supplementary table 1, MHB, 37 °C, 18 h) was 4 µg/mL, the MIC ([9]; Escherichia coli CMCC 44817, MHB, 37 °C, 18 h) was 16 µg/mL and the MIC ([10]; Escherichia coli ATCC 8739, first listing in Supplementary table 1, MHB, 37 °C, 18 h) was 8 µg/mL. It also gave an MIC ([10]; Escherichia coli ATCC 8739, second listing in Supplementary table 1, MHB, 37 °C, 18 h) of 8 µg/mL, an MIC [11] of 16 µg/mL and an MIC ([12]; Bacillus cereus CMCC 63301, MHB, 37 °C, 18 h) of 16 µg/mL. It also gave an MIC ([13]; Bacillus pumilus CMCC 63202, MHB, 37 °C, 18 h) of 16 µg/mL, an MIC ([14]; Staphylococcus aureus ATCC 29213, MHB, 37 °C, 18 h) of 8 µg/mL and an MIC ([15]; Staphylococcus aureus CMCC 26003, MHB, 37 °C, 18 h) of 16 µg/mL. It also gave an MIC ([16]; Staphylococcus aureus ATCC 12600, MHB, 37 °C, 18 h) of 8 µg/mL, an MIC ([17]; Staphylococcus aureus ATCC 6538, MHB, 37 °C, 18 h) of 8 µg/mL and an MIC (MRSA N315; MRSA N315, MHB, 37 °C, 18 h) of 8 µg/mL. The “MIC against Staphylococcus aureus” value (Staphylococcus aureus; range over Staphylococcus aureus strains) was 8~16 μg/mL and the “FIC (FIC index) with APC” value (MRSA (ATCC 43300) [18]) was 0.31.
In the case of FIHHIFRGIVHAGRSIGRFLTG [PIS-3], the MIC ([3]; ATCC 43300, 18 h) is reported as 32 µg/mL, the MIC ([8]; CMCC44102, 18 h) is reported as 16 µg/mL and the MIC ([9]; CMCC 44817, 18 h) is reported as 16 µg/mL. The MIC ([10]; ATCC 8739, 18 h) was 8 µg/mL, the MIC [11] was 32 µg/mL and the MIC ([12]; CMCC 63301, 18 h) was 16 µg/mL. For the same compound, the MIC ([13]; CMCC 63202, 18 h) was 16 µg/mL, the MIC ([14]; ATCC 29213, 18 h) was 16 µg/mL and the MIC ([15]; CMCC 26003, 18 h) was 32 µg/mL. The MIC ([16]; ATCC 12600, 18 h) was 16 µg/mL, the MIC ([17]; ATCC 6538, 18 h) was 16 µg/mL and the MIC (MRSA N315; N315, 18 h) was 16 µg/mL.
With FIHHIFRGIVHVGRSIGRFLTG [PIS-A-1] the MIC [4] was 16 µg/mL, the MIC [5] was 8 µg/mL and the MIC [6] was 16 µg/mL. The MIC [7] was 16 µg/mL, the “hemolysis at its MIC” value (mouse blood cells) was “did not induce minimal hemolysis” and the “HC50 (minimum AMP concentration producing 50% hemolysis of red blood cells)” value (mouse blood cells; red cells of mouse, 1 h) was 64 µg/mL. The “resistance to enzymatic degradation (change of MIC against MRSA after protease treatment)” value [19] was “least affected by enzymatic degradation”, the MIC ([3]; ATCC 43300, 18 h) was 8 µg/mL and the MIC ([9]; CMCC 44817, 18 h) was 16 µg/mL. It also gave an MIC ([10]; ATCC 8739, 18 h) of 8 µg/mL, an MIC [11] of 16 µg/mL and an MIC ([12]; CMCC 63301, 18 h) of 8 µg/mL. It also gave an MIC ([13]; CMCC 63202, 18 h) of 16 µg/mL, an MIC ([14]; ATCC 29213, 18 h) of 8 µg/mL and an MIC ([15]; CMCC 26003, 18 h) of 16 µg/mL. The MIC ([16]; ATCC 12600, 18 h) was 8 µg/mL, the MIC ([17]; ATCC 6538, 18 h) was 8 µg/mL and the MIC (MRSA N315; N315, 18 h) was 8 µg/mL. The “MIC against Staphylococcus aureus” value (Staphylococcus aureus; 18 h) was 8~16 μg/mL and the “FIC (FIC index) with APC” value (MRSA (ATCC 43300) [18]) was 0.19.
“FFHHIFRGIVHVGKTIHRLVTG [PIS-1] [listing 2 of 2 here]” showed a cell viability (Caco-2 cells) of 3.64 ± 0.79%.
